Results as given in patent publication US10472341B2, “Bicyclic tetrahydrothiazepine derivatives useful for the treatment of neoplastic and/or infectious diseases” (APEIRON BIOLOGICS AG, priority 2015, dated 2019).
Counter-ions that a name gives are not always drawn. Like-named read-outs stand apart in the source and are kept apart here.

What was measured:
[1] = tested on: aCD3/aCD28-stimulated human PBMCs; assay: Cytokine production in aCD3/aCD28 stimulated human PBMCs; type: cell-based; settings: PBMC, 18 h
Method in brief: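 Ficoll-isolated human PBMCs at 1e6 cells/mL in X-Vivo15, stimulated with soluble anti-CD3/CD28 (OKT3 and 28.2, 1 μg/mL each) plus compound for 18 h at 37° C. Supernatant cytokines quantified by MSD or HTRF.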

non-stimulated PBMCs = assay: Non-stimulated PBMCs: cytokine secretion and signs of T-cell activation; type: cell-based, human
Excerpt: This is an important finding for compounds that shall selectively act on T cells which have been activated by presence of antigen from pathogens or tumors, but shall not lead to an unwanted general activation of all T cells of a patient.

[2] = tested on: aCD3/aCD28-stimulated human CD4+-T-cells; assay: IL-2 production and activation markers in aCD3/aCD28 stimulated isolated human CD4+-T-cells; type: cell-based; settings: IL-2 production at 3 μM compound
Method in brief: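 CD4+ T cells isolated from buffy-coat PBMCs by microbeads were plated in Xvivo medium (1.5*10^5 cells/well) and stimulated with anti-CD3/28 mAbs plus compound. IL-2 measured by ELISA in supernatants at 24 h or 48 h; CD25 and proliferation by flow cytometry, CD69 at 24 h. Activity classes based on IL-2 at 3 μM compound.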

Splenocytes of BL6 mice = assay: Murine splenocytes stimulated with anti-CD3 and anti-CD28 antibodies: IL-2, CD25 on CD4 and CD8 T cells; type: cell-based, mouse; settings: for production of cytokine: murine splenocytes stimulated with anti-CD3 and anti-CD28; for enhancement of cytokine production: unstimulated murine splenocytes
[3] = enhancement of IFN-γ production, read-out: Activity Class IFN-γ
[4] = enhancement of IL-2 production, read-out: Activity Class IL-2

| Compound | EC50 [1, 3] [µM] | EC50 [1, 4] [µM] | cytokine secretion or other signs of T-cell activation (non-stimulated PBMCs) | Activity Class CD4+ [2] | CD25+ CD4 T cells (Splenocytes of BL6 mice; aCD3/28 stim, 0.3 μM) [% gated] | CD25+ CD8 T cells (Splenocytes of BL6 mice; aCD3/28 stim, 0.3 μM) [% gated] | IL-2 production (Splenocytes of BL6 mice; aCD3/28 stim, 0.3 μM) [ng/mL] | CD25+ CD4 T cells (Splenocytes of BL6 mice; aCD3/28 stim, 1 μM) [% gated] | CD25+ CD8 T cells (Splenocytes of BL6 mice; aCD3/28 stim, 1 μM) [% gated] | IL-2 production (Splenocytes of BL6 mice; aCD3/28 stim, 1 μM) [ng/mL] | CD25+ CD4 T cells (Splenocytes of BL6 mice; aCD3/28 stim, 3 μM) [% gated] | CD25+ CD8 T cells (Splenocytes of BL6 mice; aCD3/28 stim, 3 μM) [% gated] | IL-2 production (Splenocytes of BL6 mice; aCD3/28 stim, 3 μM) [ng/mL] | CD25+ CD4 T cells (Splenocytes of BL6 mice; aCD3/28 stim, 10 μM) [% gated] | CD25+ CD8 T cells (Splenocytes of BL6 mice; aCD3/28 stim, 10 μM) [% gated] | IL-2 production (Splenocytes of BL6 mice; aCD3/28 stim, 10 μM) [ng/mL] | CD25+ CD4 T cells (Splenocytes of BL6 mice; aCD3/28 stim, 30 μM) [% gated] | CD25+ CD8 T cells (Splenocytes of BL6 mice; aCD3/28 stim, 30 μM) [% gated] | IL-2 production (Splenocytes of BL6 mice; aCD3/28 stim, 30 μM) [ng/mL] | production of cytokine (Splenocytes of BL6 mice) | further results |
| --- | --- | --- | --- | --- | --- | --- | --- | --- | --- | --- | --- | --- | --- | --- | --- | --- | --- | --- | --- | --- | --- |
| CC(C)NC(=O)c1cc2c(cc1F)S(=O)(=O)C[C@H](N)C(=O)N2Cc1ccc(Cl)cc1.Cl [Example 77, (3R)-3-amino-5-[(4-chlorophenyl)methyl]-8-fluoro-1,1,4-trioxo-N-(propan-2-yl)-2,3,4,5-tetrahydro-1λ^6,5-benzothiazepine-7-carboxamide hydrochloride] | 1.58 to 5.01 | 1.58 to 5.01 | did not enhance cytokine secretion or other signs of T-cell activation | C (IL-2 production at 3 μM compound concentration between 2-fold increase as compared to mean IL-2 production of stimulated cells in the absence of compounds and <2 ng/mL) |  |  |  |  |  |  |  |  |  |  |  |  |  |  |  |  |  |
| CCCCNC(=O)c1ccc2c(c1)N(Cc1ccc(OC(F)(F)F)cc1)C(=O)[C@@H](N)CS2(=O)=O.Cl [Example 67, (3R)-3-amino-N-butyl-1,1,4-trioxo-5-{[4-(trifluoromethoxy)phenyl]methyl}-2,3,4,5-tetrahydro-1λ^6,5-benzothiazepine-7-carboxamide hydrochloride] | < 1.58 | < 1.58 | did not enhance cytokine secretion or other signs of T-cell activation | A (IL-2 production at 3 μM compound concentration >10 ng/mL) |  |  |  |  |  |  |  |  |  |  |  |  |  |  |  |  |  |
| N[C@H]1CS(=O)(=O)c2cc(F)c(C(=O)NC3CC3(F)F)cc2N(Cc2ccc(Cl)cc2)C1=O (stereo partly drawn) [Example 1, (3R)-3-amino-5-[(4-chlorophenyl)methyl]-N-(2,2-difluorocyclopropyl)-8-fluoro-1,1,4-trioxo-2,3,4,5-tetrahydro-1λ^6,5-benzothiazepine-7-carboxamide hydrochloride] | < 1.58 | < 1.58 | did not enhance cytokine secretion or other signs of T-cell activation | A (IL-2 production at 3 μM compound concentration >10 ng/mL) | 7.48 | 5.86 | 0.29 | 7.42 | 7.17 | 0.45 | 9.19 | 10.90 | 0.61 | 12.15 | 15.76 | 1.46 | 12.01 | 16.51 | 1.71 | strongly enhanced production of cytokine | CD25+ CD4 T cells (Splenocytes of BL6 mice; unstim, 0.3 μM): 0.50 % gated; CD25+ CD8 T cells (Splenocytes of BL6 mice; unstim, 0.3 μM): 0.61 % gated; IL-2 production (Splenocytes of BL6 mice; unstim, 0.3 μM): 0.00 ng/mL; CD25+ CD4 T cells (Splenocytes of BL6 mice; unstim, 1 μM): 0.50 % gated; CD25+ CD8 T cells (Splenocytes of BL6 mice; unstim, 1 μM): 0.65 % gated; IL-2 production (Splenocytes of BL6 mice; unstim, 1 μM): 0.00 ng/mL; CD25+ CD4 T cells (Splenocytes of BL6 mice; unstim, 3 μM): 0.42 % gated; CD25+ CD8 T cells (Splenocytes of BL6 mice; unstim, 3 μM): 0.61 % gated; IL-2 production (Splenocytes of BL6 mice; unstim, 3 μM): 0.00 ng/mL; CD25+ CD4 T cells (Splenocytes of BL6 mice; unstim, 10 μM): 0.41 % gated; CD25+ CD8 T cells (Splenocytes of BL6 mice; unstim, 10 μM): 0.62 % gated; IL-2 production (Splenocytes of BL6 mice; unstim, 10 μM): 0.00 ng/mL; CD25+ CD4 T cells (Splenocytes of BL6 mice; unstim, 30 μM): 0.38 % gated; CD25+ CD8 T cells (Splenocytes of BL6 mice; unstim, 30 μM): 0.56 % gated; IL-2 production (Splenocytes of BL6 mice; unstim, 30 μM): 0.00 ng/mL; enhancement of cytokine production (Splenocytes of BL6 mice): such effect was not detected on unstimulated cells |
| Cl.N[C@H]1CS(=O)(=O)c2cc(F)c(C(=O)NCCCC(F)(F)F)cc2N(Cc2ccc(Cl)cc2)C1=O [Example 70, (3R)-3-amino-5-[(4-chlorophenyl)methyl]-8-fluoro-1,1,4-trioxo-N-(4,4,4-trifluoro-butyl)-2,3,4,5-tetrahydro-1λ^6,5-benzothiazepine-7-carboxamide hydrochloride] | < 1.58 | < 1.58 |  | A (IL-2 production at 3 μM compound concentration >10 ng/mL) | 8.10 | 10.10 | 0.77 | 9.28 | 10.41 | 0.91 | 11.88 | 14.58 | 1.54 | 13.41 | 16.68 | 1.90 | 11.94 | 17.50 | 1.71 | strongly enhanced production of cytokine | CD25+ CD4 T cells (Splenocytes of BL6 mice; unstim, 0.3 μM): 0.55 % gated; CD25+ CD8 T cells (Splenocytes of BL6 mice; unstim, 0.3 μM): 0.61 % gated; IL-2 production (Splenocytes of BL6 mice; unstim, 0.3 μM): 0.00 ng/mL; CD25+ CD4 T cells (Splenocytes of BL6 mice; unstim, 1 μM): 0.45 % gated; CD25+ CD8 T cells (Splenocytes of BL6 mice; unstim, 1 μM): 0.65 % gated; IL-2 production (Splenocytes of BL6 mice; unstim, 1 μM): 0.00 ng/mL; CD25+ CD4 T cells (Splenocytes of BL6 mice; unstim, 3 μM): 0.48 % gated; CD25+ CD8 T cells (Splenocytes of BL6 mice; unstim, 3 μM): 0.60 % gated; IL-2 production (Splenocytes of BL6 mice; unstim, 3 μM): 0.00 ng/mL; CD25+ CD4 T cells (Splenocytes of BL6 mice; unstim, 10 μM): 0.45 % gated; CD25+ CD8 T cells (Splenocytes of BL6 mice; unstim, 10 μM): 0.60 % gated; IL-2 production (Splenocytes of BL6 mice; unstim, 10 μM): 0.00 ng/mL; CD25+ CD4 T cells (Splenocytes of BL6 mice; unstim, 30 μM): 0.47 % gated; CD25+ CD8 T cells (Splenocytes of BL6 mice; unstim, 30 μM): 0.64 % gated; IL-2 production (Splenocytes of BL6 mice; unstim, 30 μM): 0.00 ng/mL; enhancement of cytokine production (Splenocytes of BL6 mice): such effect was not detected on unstimulated cells |
